Experimental data published in patent US10227342B2 (ARIAD PHARMACEUTICALS, INC., priority 2014, dated 2019).

Legend:
Format in all cases: cell-based
[1] = biological target: human EGFR L858R and T790M double mutation (LT) (Homo sapiens (Human), UniProt P00533, L858R/T790M); experiment: Ba/F3-EGFR L858R/T790M cell anti-proliferative assay (CellTiter 96 MTS, 72 h); details: Ba/F3-EGFR L858R/T790M cells; for IC50: read-out: EGFR exon 21 L858R and T790M mutation IC50;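 on all read-outs here: Ba/F3 cells carrying the EGFR L858R/T790M double mutant are able to grow without IL-3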
Method: An expression vector, pLVX-IRES puro (Clontech) coding for human EGFR L858R and T790M double mutation, was transfected into HEK293 cells by the Trans-Lentiviral ORF Packaging System (Thermo Scientific), to produce virus encoding EGFR L858R and T790M double mutations. […] Ba/F3 cells expressing EGFR L858R and T790M double mutation (named Ba/F3-EGFR L858R/T790M) can proliferate in the absence of IL-3. The anti-proliferative activity of compounds was determined as follows: BaF3-EGFR L858R/T790M cells seeded in 96 well plates (2500 cells/well) were treated with test compound (dissolved in DMSO) at a series of concentrations (4-fold dilution, top concentration: 10,000 nM). The plates were incubated for 72 h in a 37° C. incubator with 5% CO2, and the number of viable cells in each well were measured indirectly by CellTiter 96® Aqueous One Solution Cell Proliferation Assay (Promega; this assay is a colorimetric method for determining the number of viable cells through measurement of their metabolic activity by detection of enzymatic conversion of tetrazolium salts into blue formazan derivatives). Reagent (20 μL) was added into each well, and the plates were returned to the incubator for 2 h. The absorbance in each well was then measured at 490 nm using an Envision plate reader (Perkin Elmer).

[2] = biological target: Her2 exon 20 YVMA insertion (A775_G776ins YVMA) (Homo sapiens (Human), UniProt P04626, INS775YVMA); experiment: Ba/F3-Her2 Exon20 YVMA cell anti-proliferative assay (CellTiter 96 MTS, 72 h); details: Ba/F3-Her2 Exon20 YVMA cells
Excerpt: Ba/F3 cells expressing Her2 Exon20 YVMA insertions (named Ba/F3-Her2 Exon20 YVMA) can proliferate in the absence of IL-3.

[3] = biological target: human EGFR exon 20 insertion ASV (V769_D770insASV) (Homo sapiens (Human), UniProt P00533, INS769ASV); experiment: Ba/F3-EGFR-Exon20-ASV cell anti-proliferative assay (CellTiter 96 MTS, 72 h); details: Ba/F3-EGFR-Exon20-ASV cells;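 further: Ba/F3 cells bearing the EGFR exon 20 ASV insertion, a line able to proliferate without IL-3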
Method: (§1) Ba/F3 cells expressing EGFR exon 20 insertions (named Ba/F3-EGFR-Exon20-NPG or Ba/F3-EGFR-Exon20-ASV) can proliferate in the absence of IL-3. The anti-proliferative activity of compounds were determined as follows: BaF3-EGFR-Exon20 cells (NPG or ASV) seeded in 96 well plates (2500 cells/well) were treated with test compound (dissolved in DMSO) at a series of concentrations (4-fold dilution, top concentration: 10,000 nM). The plates were incubated for 72 h in a 37° C. incubator with 5% CO2, and the number of viable cells in each well were measured indirectly by CellTiter 96® Aqueous One Solution Cell Proliferation Assay (Promega) This assay is a colorimetric method for determining the number of viable cells through measurement of their metabolic activity by detection of enzymatic conversion of tetrazolium salts into blue formazan derivatives. Reagent (20 μL) was added into each well, and the plates were returned to the incubator for 2 h. The absorbance in each well was then measured at 490 nm using an Envision plate reader (Perkin Elmer).

[4] = biological target: human EGFR E746-A750 deletion and T790M Mutation (DT) (Homo sapiens (Human), UniProt P00533, DEL746-750/T790M); experiment: Ba/F3-EGFR-Del/T790M cell anti-proliferative assay (CellTiter 96 MTS, 72 h); details: Ba/F3-EGFR-Del/T790M cells; for IC50: read-out: EGFR exon 19 deletion and T790M mutation IC50
[5] = biological target: human EGFR exon 20 insertion NPG (H773_V774insNPG) (Homo sapiens, UniProt P00533, INS773NPG, cells depend on it); experiment: Ba/F3-EGFR-Exon20-NPG cell anti-proliferative assay (CellTiter 96 MTS, 72 h); details: read-out: EGFR exon 20 NPG insertion IC50
human EGFR exon 20 insertion NPG (H773_V774insNPG), sequence (P00533 with tags, fused parts or gaps INS773NPG limits assumed): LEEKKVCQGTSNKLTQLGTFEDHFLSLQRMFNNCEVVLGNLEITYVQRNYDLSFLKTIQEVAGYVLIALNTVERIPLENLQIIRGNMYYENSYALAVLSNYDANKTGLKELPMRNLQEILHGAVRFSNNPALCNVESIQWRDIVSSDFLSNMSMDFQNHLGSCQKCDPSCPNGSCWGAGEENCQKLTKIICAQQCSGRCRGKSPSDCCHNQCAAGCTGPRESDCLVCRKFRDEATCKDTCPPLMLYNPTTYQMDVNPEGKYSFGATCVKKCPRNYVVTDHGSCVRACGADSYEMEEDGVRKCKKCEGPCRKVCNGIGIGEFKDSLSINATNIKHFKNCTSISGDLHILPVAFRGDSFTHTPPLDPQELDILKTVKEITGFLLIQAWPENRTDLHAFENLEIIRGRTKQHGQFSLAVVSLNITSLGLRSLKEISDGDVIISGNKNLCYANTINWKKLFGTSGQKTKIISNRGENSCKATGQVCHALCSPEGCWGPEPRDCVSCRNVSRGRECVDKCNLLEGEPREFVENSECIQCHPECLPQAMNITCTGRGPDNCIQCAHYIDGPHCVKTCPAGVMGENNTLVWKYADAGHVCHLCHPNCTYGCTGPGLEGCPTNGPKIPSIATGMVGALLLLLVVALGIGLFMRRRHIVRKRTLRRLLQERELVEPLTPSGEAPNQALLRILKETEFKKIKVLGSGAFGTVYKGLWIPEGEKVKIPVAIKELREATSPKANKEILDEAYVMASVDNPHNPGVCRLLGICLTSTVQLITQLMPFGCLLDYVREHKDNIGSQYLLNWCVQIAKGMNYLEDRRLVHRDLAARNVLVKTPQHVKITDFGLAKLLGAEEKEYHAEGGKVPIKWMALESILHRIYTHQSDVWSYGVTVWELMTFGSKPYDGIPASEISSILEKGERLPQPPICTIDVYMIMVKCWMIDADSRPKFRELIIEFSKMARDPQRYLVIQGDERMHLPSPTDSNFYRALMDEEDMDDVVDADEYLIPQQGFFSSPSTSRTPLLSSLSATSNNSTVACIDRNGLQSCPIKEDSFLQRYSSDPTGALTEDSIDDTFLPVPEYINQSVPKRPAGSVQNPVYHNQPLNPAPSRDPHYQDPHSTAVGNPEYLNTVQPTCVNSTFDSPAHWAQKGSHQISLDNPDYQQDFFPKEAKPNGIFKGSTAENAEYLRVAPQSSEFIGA
Method: as §1

Her2 exon 20 YVMA insertion (A775_G776ins YVMA), sequence (P04626 other isoform, or with tags, fused parts or gaps ins YVMA behind 775): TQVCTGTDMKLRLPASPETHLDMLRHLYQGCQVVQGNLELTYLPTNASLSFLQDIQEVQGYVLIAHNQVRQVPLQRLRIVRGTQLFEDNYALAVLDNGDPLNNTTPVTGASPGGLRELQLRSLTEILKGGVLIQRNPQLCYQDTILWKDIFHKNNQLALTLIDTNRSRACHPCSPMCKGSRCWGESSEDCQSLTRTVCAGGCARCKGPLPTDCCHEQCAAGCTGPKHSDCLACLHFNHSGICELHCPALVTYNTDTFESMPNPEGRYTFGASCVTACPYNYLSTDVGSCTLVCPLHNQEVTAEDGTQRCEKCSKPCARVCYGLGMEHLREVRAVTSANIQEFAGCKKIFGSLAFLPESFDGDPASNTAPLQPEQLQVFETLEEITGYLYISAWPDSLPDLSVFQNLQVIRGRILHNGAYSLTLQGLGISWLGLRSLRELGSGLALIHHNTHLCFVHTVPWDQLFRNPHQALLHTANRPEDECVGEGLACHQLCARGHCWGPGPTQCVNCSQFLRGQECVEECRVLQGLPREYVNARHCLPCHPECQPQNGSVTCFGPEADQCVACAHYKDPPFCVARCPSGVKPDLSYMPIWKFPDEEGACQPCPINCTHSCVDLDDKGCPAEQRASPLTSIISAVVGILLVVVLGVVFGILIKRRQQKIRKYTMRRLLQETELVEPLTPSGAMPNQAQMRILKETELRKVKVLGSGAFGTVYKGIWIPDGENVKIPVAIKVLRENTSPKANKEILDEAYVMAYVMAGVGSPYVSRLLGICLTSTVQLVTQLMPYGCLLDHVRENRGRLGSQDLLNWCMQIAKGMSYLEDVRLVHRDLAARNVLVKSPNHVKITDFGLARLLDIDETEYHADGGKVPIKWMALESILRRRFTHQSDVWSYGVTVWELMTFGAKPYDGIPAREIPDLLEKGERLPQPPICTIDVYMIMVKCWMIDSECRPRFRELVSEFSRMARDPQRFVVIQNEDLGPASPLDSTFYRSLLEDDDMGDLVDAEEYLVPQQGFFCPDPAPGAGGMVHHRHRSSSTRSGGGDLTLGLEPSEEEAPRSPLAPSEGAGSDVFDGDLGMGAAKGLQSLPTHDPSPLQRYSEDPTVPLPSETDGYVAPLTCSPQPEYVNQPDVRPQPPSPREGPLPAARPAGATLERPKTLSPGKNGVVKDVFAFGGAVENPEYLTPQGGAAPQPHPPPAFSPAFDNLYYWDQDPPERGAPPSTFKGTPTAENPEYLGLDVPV
human EGFR L858R and T790M double mutation (LT), sequence (P00533 25-1210 T790M/L858R): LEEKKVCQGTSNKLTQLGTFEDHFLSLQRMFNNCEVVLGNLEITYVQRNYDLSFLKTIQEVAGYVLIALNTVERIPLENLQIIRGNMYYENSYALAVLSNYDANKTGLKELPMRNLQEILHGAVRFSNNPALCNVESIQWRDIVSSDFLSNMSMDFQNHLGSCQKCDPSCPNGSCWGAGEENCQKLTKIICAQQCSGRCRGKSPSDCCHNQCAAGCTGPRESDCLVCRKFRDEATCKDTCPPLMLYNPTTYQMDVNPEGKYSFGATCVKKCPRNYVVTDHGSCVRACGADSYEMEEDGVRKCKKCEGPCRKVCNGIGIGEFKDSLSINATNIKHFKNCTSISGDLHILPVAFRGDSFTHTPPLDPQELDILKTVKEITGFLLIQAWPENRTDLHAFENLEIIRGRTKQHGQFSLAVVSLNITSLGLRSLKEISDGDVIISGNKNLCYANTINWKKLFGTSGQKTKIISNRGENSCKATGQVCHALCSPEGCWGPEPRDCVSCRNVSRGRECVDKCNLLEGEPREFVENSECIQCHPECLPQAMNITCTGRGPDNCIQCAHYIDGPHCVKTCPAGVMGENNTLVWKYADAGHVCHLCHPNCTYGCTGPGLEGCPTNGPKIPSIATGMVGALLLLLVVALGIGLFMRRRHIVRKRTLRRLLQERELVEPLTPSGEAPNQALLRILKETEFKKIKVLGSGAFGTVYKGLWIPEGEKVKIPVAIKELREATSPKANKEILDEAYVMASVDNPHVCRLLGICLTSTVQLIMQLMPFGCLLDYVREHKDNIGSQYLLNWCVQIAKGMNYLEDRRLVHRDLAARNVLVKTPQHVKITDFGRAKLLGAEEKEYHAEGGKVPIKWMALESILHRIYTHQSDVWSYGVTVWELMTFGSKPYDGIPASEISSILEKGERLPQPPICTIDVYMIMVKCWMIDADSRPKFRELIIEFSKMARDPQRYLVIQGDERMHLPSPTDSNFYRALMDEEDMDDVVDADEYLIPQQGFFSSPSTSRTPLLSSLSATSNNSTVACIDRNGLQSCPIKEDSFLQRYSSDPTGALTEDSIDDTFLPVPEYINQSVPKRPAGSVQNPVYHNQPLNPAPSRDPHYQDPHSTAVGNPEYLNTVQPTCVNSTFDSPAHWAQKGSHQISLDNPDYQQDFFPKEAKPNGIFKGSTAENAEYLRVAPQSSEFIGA
human EGFR exon 20 insertion ASV (V769_D770insASV), sequence (P00533 other isoform, or with tags, fused parts or gaps ins ASV behind 769): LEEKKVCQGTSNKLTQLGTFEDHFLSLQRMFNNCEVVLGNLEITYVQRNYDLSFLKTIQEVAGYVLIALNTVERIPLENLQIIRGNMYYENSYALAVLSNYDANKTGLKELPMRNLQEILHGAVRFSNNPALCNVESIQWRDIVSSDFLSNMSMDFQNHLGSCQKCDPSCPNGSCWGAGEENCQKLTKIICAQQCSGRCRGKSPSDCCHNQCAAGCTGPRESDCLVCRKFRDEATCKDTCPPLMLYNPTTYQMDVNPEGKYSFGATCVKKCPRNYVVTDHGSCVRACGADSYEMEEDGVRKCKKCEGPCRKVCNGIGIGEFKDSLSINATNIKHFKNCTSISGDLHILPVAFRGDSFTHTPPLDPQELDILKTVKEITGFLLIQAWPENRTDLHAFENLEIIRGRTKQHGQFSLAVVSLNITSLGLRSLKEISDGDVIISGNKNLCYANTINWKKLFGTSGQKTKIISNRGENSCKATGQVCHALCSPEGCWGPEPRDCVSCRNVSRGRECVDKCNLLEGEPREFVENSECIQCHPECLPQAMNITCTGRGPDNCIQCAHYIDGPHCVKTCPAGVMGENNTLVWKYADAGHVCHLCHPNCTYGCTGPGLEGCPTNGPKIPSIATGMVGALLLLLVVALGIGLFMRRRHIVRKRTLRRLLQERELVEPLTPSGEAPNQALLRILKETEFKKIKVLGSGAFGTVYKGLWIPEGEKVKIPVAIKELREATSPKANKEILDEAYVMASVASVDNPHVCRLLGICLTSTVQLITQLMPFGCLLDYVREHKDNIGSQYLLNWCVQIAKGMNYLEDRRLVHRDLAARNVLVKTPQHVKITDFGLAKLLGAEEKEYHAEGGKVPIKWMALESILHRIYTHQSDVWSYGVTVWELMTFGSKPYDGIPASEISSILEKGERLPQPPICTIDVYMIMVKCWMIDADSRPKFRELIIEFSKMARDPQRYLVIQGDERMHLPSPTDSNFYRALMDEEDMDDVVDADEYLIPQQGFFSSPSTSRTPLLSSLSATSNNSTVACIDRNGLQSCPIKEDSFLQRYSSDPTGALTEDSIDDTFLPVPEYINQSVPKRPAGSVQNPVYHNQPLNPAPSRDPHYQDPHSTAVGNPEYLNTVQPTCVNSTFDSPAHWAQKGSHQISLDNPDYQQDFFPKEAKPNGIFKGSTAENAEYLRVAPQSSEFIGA

Structure (SMILES)	IC50 [1]	IC50 [2]	IC50 [3]	IC50 [4]	EGFR exon 21 L858R and T790M mutation IC50 [1]	EGFR exon 19 deletion and T790M mutation IC50 [4]	IC50 [5]
C=CC(=O)Nc1cc(Nc2ncc(NC(=O)NC)c(-c3cn(C)c4ccccc34)n2)c(OC)cc1N(C)CCN(C)C [Example 99, N-(2-((2-(dimethylamino)ethyl)(methyl)amino)-4-methoxy-5-((4-(1-methyl-1H-indol-3-yl)-5-(3-methylureido)pyrimidin-2-yl)amino)phenyl)acrylamide]	> 1000 nM	> 1000 nM	500 to 1000 nM	> 1000 nM			
C=CC(=O)Nc1cc(Nc2nccc(-c3c(C(=O)N(C)C)n(C)c4ccccc34)n2)c(OC)cc1N(C)CCN(C)C [Example 92, 3-(2-((5-acrylamido-4-((2-(dimethylamino)ethyl)(methyl)amino)-2-methoxyphenyl)amino)pyrimidin-4-yl)-N,N,1-trimethyl-1H-indole-2-carboxamide]	< 100 nM	100 to 500 nM	< 100 nM	< 100 nM			
C=CC(=O)Nc1cc(Nc2nccc(-c3c(C#N)n(C)c4ccccc34)n2)c(OC)cc1N(C)CCN(C)C [Example 88, N-(5-((4-(2-cyano-1-methyl-1H-indol-3-yl)pyrimidin-2-yl)amino)-2-((2-(dimethylamino)ethyl)(methyl)amino)-4-methoxyphenyl)acrylamide]	< 100 nM	100 to 500 nM	< 100 nM	< 100 nM			
C=CC(=O)Nc1cc(Nc2nccc(-c3c(C(=O)NCCOC)n(C)c4ccccc34)n2)c(OC)cc1N(C)CCN(C)C [Example 93, 3-(2-((5-acrylamido-4-((2-(dimethylamino)ethyl)(methyl)amino)-2-methoxyphenyl)amino)pyrimidin-4-yl)-N-(2-methoxyethyl)-1-methyl-1H-indole-2-carboxamide]		> 1000 nM	500 to 1000 nM		C (Group C compounds have an IC50 value for the indicated mutant between greater than about 500 to about 1 μM)	B (Group B compounds have an IC50 value for the indicated mutant between about 100 to about 500 nM)	
C=CC(=O)Nc1cc(Nc2nccc(-c3cn(C)c4cc(C(=O)OC(C)C)ccc34)n2)c(OC)cc1N(C)CCN(C)C [Example 84, isopropyl 3-(2-((5-acrylamido-4-((2-(dimethylamino)ethyl)(methyl)amino)-2-methoxyphenyl)amino)pyrimidin-4-yl)-1-methyl-1H-indole-6-carboxylate]	< 100 nM	500 to 1000 nM	500 to 1000 nM	< 100 nM			
C=CC(=O)Nc1cc(Nc2ncc(CC)c(-c3cn(CC(=O)NC)c4ccccc34)n2)c(OC)cc1N(C)CCN(C)C [Example 72, N-(2-((2-(dimethylamino)ethyl)(methyl)amino)-5-((5-ethyl-4-(1-(2-(methylamino)-2-oxoethyl)-1H-indol-3-yl)pyrimidin-2-yl)amino)-4-methoxyphenyl)acrylamide]	< 100 nM	100 to 500 nM	< 100 nM	< 100 nM			
C=CC(=O)Nc1cc(Nc2nccc(-c3c(C(N)=O)n(C)c4ccccc34)n2)c(OC)cc1N(C)CCN(C)C [Example 90, 3-(2-((5-acrylamido-4-((2-(dimethylamino)ethyl)(methyl)amino)-2-methoxyphenyl)amino)pyrimidin-4-yl)-1-methyl-1H-indole-2-carboxamide]	< 100 nM	500 to 1000 nM	100 to 500 nM	< 100 nM			
C=CC(=O)Nc1cc(Nc2nccc(-c3c(C(=O)OC)n(C)c4ccccc34)n2)c(OC)cc1N(C)CCN(C)C [Example 86, methyl 3-(2-((5-acrylamido-4-((2-(dimethylamino)ethyl)(methyl)amino)-2-methoxyphenyl)amino)pyrimidin-4-yl)-1-methyl-1H-indole-2-carboxylate]	< 100 nM	500 to 1000 nM	< 100 nM	< 100 nM			
C=CC(=O)Nc1cc(Nc2nccc(-c3cn(C)c4c(C(=O)OC(C)C)cccc34)n2)c(OC)cc1N(C)CCN(C)C [Example 85, isopropyl 3-(2-((5-acrylamido-4-((2-(dimethylamino)ethyl)(methyl)amino)-2-methoxyphenyl)amino)pyrimidin-4-yl)-1-methyl-1H-indole-7-carboxylate]	< 100 nM	100 to 500 nM	100 to 500 nM	< 100 nM			
C=CC(=O)Nc1cc(Nc2ncc(CC)c(-c3cn(CC(N)=O)c4ccccc34)n2)c(OC)cc1N(C)CCN(C)C [Example 71, N-(5-((4-(1-(2-amino-2-oxoethyl)-1H-indol-3-yl)-5-ethylpyrimidin-2-yl)amino)-2-((2-(dimethylamino)ethyl)(methyl)amino)-4-methoxyphenyl)acrylamide]	< 100 nM	100 to 500 nM	< 100 nM	< 100 nM			
C=CC(=O)Nc1cc(Nc2ncc(C(=O)OC3COC3)c(-c3cn(C)c4ccccc34)n2)c(OC)cc1N(C)CCN(C)C [Example 11, oxetan-3-yl 2-((5-acrylamido-4-((2-(dimethylamino)ethyl)(methyl)amino)-2-methoxyphenyl)amino)-4-(1-methyl-1H-indol-3-yl)pyrimidine-5-carboxylate]		< 100 nM	< 100 nM	< 100 nM			< 100 nM
C=CC(=O)Nc1cc(Nc2nccc(-c3cn(C)c4cc(C(=O)OC)ccc34)n2)c(OC)cc1N(C)CCN(C)C [Example 82, methyl 3-(2-((5-acrylamido-4-((2-(dimethylamino)ethyl)(methyl)amino)-2-methoxyphenyl)amino)pyrimidin-4-yl)-1-methyl-1H-indole-6-carboxylate]		100 to 500 nM	100 to 500 nM	< 100 nM			< 100 nM
C=CC(=O)Nc1cc(Nc2ncc(C(=O)OC)c(-c3cn(N(C)C)c4ccccc34)n2)c(OC)cc1N(C)CCN(C)C [Example 76, methyl 2-((5-acrylamido-4-((2-(dimethylamino)ethyl)(methyl)amino)-2-methoxyphenyl)amino)-4-(1-(dimethylamino)-1H-indol-3-yl)pyrimidine-5-carboxylate]		< 100 nM	< 100 nM	< 100 nM			< 100 nM
C=CC(=O)Nc1cc(Nc2ncc(C(=O)OC(C)C)c(-c3cn(C(C)=O)c4ccccc34)n2)c(OC)cc1N(C)CCN(C)C [Example 78, isopropyl 4-(1-acetyl-1H-indol-3-yl)-2-((5-acrylamido-4-((2-(dimethylamino)ethyl)(methyl)amino)-2-methoxyphenyl)amino)pyrimidine-5-carboxylate]		< 100 nM	< 100 nM	< 100 nM			< 100 nM
C=CC(=O)Nc1cc(Nc2ncc(C(=O)OC3CCC3)c(-c3cn(C)c4ccccc34)n2)c(OC)cc1N(C)CCN(C)C [Example 14, cyclobutyl 2-((5-acrylamido-4-((2-(dimethylamino)ethyl)(methyl)amino)-2-methoxyphenyl)amino)-4-(1-methyl-1H-indol-3-yl)pyrimidine-5-carboxylate]		< 100 nM	< 100 nM	< 100 nM			< 100 nM
C=CC(=O)Nc1cc(Nc2ncc(C(=O)O[C@@H]3CCOC3)c(-c3cn(C)c4ccccc34)n2)c(OC)cc1N(C)CCN(C)C [Example 37, (R)-tetrahydrofuran-3-yl 2-((5-acrylamido-4-((2-(dimethylamino)ethyl)-(methyl)amino)-2-methoxyphenyl)amino)-4-(1-methyl-1H-indol-3-yl)pyrimidine-5-carboxylate]		100 to 500 nM	< 100 nM	< 100 nM			< 100 nM
C=CC(=O)Nc1cc(Nc2ncc(Cl)c(-c3cnn4ccccc34)n2)c(OC)cc1N1CCC(N(C)C)C1 (stereo not shown) [Example 55, N-(5-((5-chloro-4-(pyrazolo[1,5-a]pyridin-3-yl)pyrimidin-2-yl)amino)-2-(3-(dimethylamino)pyrrolidin-1-yl)-4-methoxyphenyl)acrylamide]		> 1000 nM	> 1000 nM	< 100 nM			100 to 500 nM
C=CC(=O)Nc1cc(Nc2ncc(C(=O)OC(C)C)c(-n3cc(C)c4ccccc43)n2)c(OC)cc1N(C)CCN(C)C [Example 97, isopropyl 2-((5-acrylamido-4-((2-(dimethylamino)ethyl)(methyl)amino)-2-methoxyphenyl)amino)-4-(3-methyl-1H-indol-1-yl)pyrimidine-5-carboxylate]		100 to 500 nM	100 to 500 nM	< 100 nM			< 100 nM
C=CC(=O)Nc1ccc(OC)c(Nc2ncc(Cl)c(-c3cn(C)c4cc(OCCN5CCN(C)CC5)ccc34)n2)c1 [Example 18, N-(3-((5-chloro-4-(1-methyl-6-(2-(4-methylpiperazin-1-yl)ethoxy)-1H-indol-3-yl)pyrimidin-2-yl)amino)-4-methoxyphenyl)acrylamide]		> 1000 nM	> 1000 nM	< 100 nM			100 to 500 nM
